According to patent publication US20100197628A1, “METHODS OF TREATING PSYCHIATRIC, SUBSTANCE ABUSE, AND OTHER DISORDERS USING COMBINATIONS CONTAINING OMEGA-3 FATTY ACIDS” (priority 2003, published 2010):
“Also recorded” adds a separate entry of the source. Values belong to the compound of their own block, whether it stands above or below them.

Assays:
[1] = system: cytosolic choline resonance in the anterior cingulate cortex; test: Proton MR spectroscopy of cytosolic choline resonance; assay type: in vivo, human; details: associated with a successful response; 500 mg twice daily, eight weeks
Experimental: (§1) In a second study, twelve depressed subjects (mean age 40) received 500 mg of an oral formulation of CDP-choline twice daily for eight weeks.

healthy subjects = test: Neuropsychological testing during chronic CDP-choline administration; assay type: in vivo, human; details: across all subjects at week twelve, 500 mg oral daily
Experimental: (§2) To assess whether chronic CDP-choline administration leads to detectable changes in lipid metabolite resonances in phosphorus-31 MR spectra, eighteen healthy subjects (mean age: 70) were administered 500 mg of an oral formulation of CDP-choline daily for a six week period. From weeks 6 to 12, half of the subjects continued to receive CDP-choline and half received placebo in a double-blind fashion. […] CDP-choline administration, therefore, improves measures of verbal fluency and spatial memory in healthy adults and results in increased brain phospholipid synthesis in older adults, particularly during chronic administration.

[2] = ingestion of large amounts in preclinical studies; cited from earlier work
rats [3] = test: Forced swim test (FST) with citicoline, cytidine and choline; assay type: in vivo, rat; details: IP; for antidepressant effects in the FST: citicoline 50-500 mg/kg, cytidine 23.8-238 mg/kg, choline 13.7-136.6 mg/kg (molar equivalent amounts)
Experimental: The effects of citicoline were examined in the forced swim test (FST), a rodent model of depression as described herein. Because citicoline is rapidly converted to cytidine and choline, their effects were also examined in the FST.
Forced Swim Test (FST): One hundred-sixty seven rats were used in the FST studies, which were conducted as described previously (Carlezon et al. Biol. Psychiatry 51:882-889, 2002) with minor modifications. The FST is a two-day procedure in which rats swim under conditions in which escape is not possible. On the first day, rats are placed in clear, 65 cm tall-25 cm diameter cylinders filled to 48 cm with 25° C. water. The rats initially struggle to escape from the water, but eventually they adopt a posture of immobility in which they make only the movements necessary to keep their heads above water. After 15 min of forced swimming, the rats are removed from the water, dried with towels, and placed in a warmed enclosure for 30 min. The cylinders are emptied and cleaned between rats. When the rats are re-tested 24 hours later under identical conditions in 5 min sessions, immobility is increased. Treatment with standard antidepressant drugs within the 24 hr period between the first exposure to forced swimming and re-testing can attenuate facilitated immobility, an effect correlated with antidepressant efficacy in humans (Porsolt et al. Nature 266:730-732 1977; Detke et al. Psychopharmacology 121:66-72 1995, Carlezon et al. Biol. Psychiatry 51:882-889, 2002).

depressed subjects = test: 17-item Hamilton Depression Rating Scale (HDRS), eight weeks of treatment; assay type: in vivo, human
Experimental: as §1

brain phosphodiesters = test: Phosphorus-31 MR spectroscopy of lipid metabolite resonances during chronic CDP-choline administration; assay type: in vivo, human; details: 18 healthy subjects, mean age 70; 500 mg oral daily for 6 weeks, weeks 6-12 half continued, half placebo; p=0.008
Experimental: as §2

[4] = cited from earlier work
[5] = Weights of the rats at the time of the re-test; assay type: in vivo, rat; details: FST studies
Experimental: Rats: A total of 197 male Sprague-Dawley rats (Charles River Laboratories, Boston Mass.) were used in these studies. The rats were housed in groups of four and weighed 325-375 gm at the time of behavioral testing. Rats were maintained on a 12 h light (0700-1900 h)-12 h dark cycle with free access to food and water except during testing. Experiments were conducted in accordance with the 1996 Guide for the Care and Use of Laboratory Animals (NIH) and McLean Hospital policies.

male Sprague-Dawley rats = test: Forced swim test (FST): latency to become immobile and behavioral sampling; assay type: in vivo, rat; details: re-test
Experimental: The behavioral effects of the combination of uridine and omega-3 fatty acids were also evaluated in rats using the forced swim test (FST). This assay identifies in rodents treatments that have antidepressant effects in humans (Porsolt et al. Nature 266:730-732 1977; Carlezon et al. Biol. Psychiatry 51:882-889, 2002). Uridine was administered using systemic injection while omega-3 fatty acids were administered by supplementation within the diet for various periods of time (3, 10, or 30 days). The effects of uridine in rats maintained on the omega-3 fatty acid-enriched diet were also evaluated to determine if these effects were additive. […] The efficacy of each treatment in the FST was evaluated using two separate scoring methods: latency to become immobile, a simple and rapid method that identifies agents with antidepressant effects ([…] et al. J Neurosci 21:7397-7403 2001), and behavioral sampling, a more complex method that differentiates antidepressant drugs according to their pharmacological mechanisms (Detke et al. Psychopharmacology 121:66-72 1995). Finally, treatments with antidepressant-like effects in the FST were evaluated for non-specific effects on activity in an open field, which might complicate interpretation of the data from the swimming studies. Rats: A total of 197 male Sprague-Dawley rats (Charles River Laboratories, Boston Mass.) were used in these studies. The rats were housed in groups of four and weighed 325-375 gm at the time of behavioral testing. Rats were maintained on a 12 h light (0700-1900 h)-12 h dark cycle with free access to food and water except during testing. Experiments were conducted in accordance with the 1996 Guide for the Care and Use of Laboratory Animals (NIH) and McLean Hospital policies. Drugs: Dosages of desipramine HCl (DMI), fluoxetine HCl (FLX), citalopram HBr (CIT), and uridine (URI) were administered in a distilled water vehicle (VEH) at a volume of 1 cc/kg. All drugs were purchased from RBI-Sigma (St. Louis, Mo.) except CIT, which was a gift of Forest Laboratories (New York, N.Y.). […] The diets were equivalent in overall fat, protein, carbohydrate, and caloric content. Forced Swim Test (FST): One hundred-sixty seven rats were used in the FST studies, which were conducted as described previously (Carlezon et al. Biol. Psychiatry 51:882-889, 2002) with minor modifications. The FST is a two-day procedure in which rats swim under conditions in which escape is not possible. On the first day, rats are placed in clear, 65 cm tall-25 cm diameter cylinders filled to 48 cm with 25° C. water. The rats initially struggle to escape from the water, but eventually they adopt a posture of immobility in which they make only the movements necessary to keep their heads above water. After 15 min of forced swimming, the rats are removed from the water, dried with towels, and placed in a warmed enclosure for 30 min. The cylinders are emptied and cleaned between rats. When the rats are re-tested 24 hours later under identical conditions in 5 min sessions, immobility is increased. Treatment with standard antidepressant drugs within the 24 hr period between the first exposure to forced swimming and re-testing can attenuate facilitated immobility, an effect correlated with antidepressant efficacy in humans (Porsolt et al. Nature 266:730-732 1977; Detke et al. Psychopharmacology 121:66-72 1995, Carlezon et al. Biol. Psychiatry 51:882-889, 2002). Rats tested with DMI, FLX, CIT, or URI received 3 separate intraperitoneal (IP) injections of drug (or VEH), at 1 hr, 19 hr, and 23 hr after the first exposure to forced swimming. This commonly used regimen is sensitive to the antidepressant-like effects of many standard agents (Porsolt et al. Nature 266:730-732 1977; Detke et al. Psychopharmacology 121:66-72 1995; Carlezon et al. Biol. Psychiatry 51:882-889, 2002). […] There were 7-12 rats per treatment condition, and separate rats were used for each treatment regimen. […]

rats [6] = test: Conditioned rewarding effects of cytidine; assay type: in vivo, rat; details: 238 mg/kg, IP
rats [7] = test: Locomotor activity after cytidine; assay type: in vivo, rat; details: 238 mg/kg, IP (optimally effective dose)
[8] = eight weeks, CDP-choline 500 mg twice daily, fluoxetine 20 mg/day

Compound: C[N+](C)(C)CCOP(=O)(O)OP(=O)([O-])OC[C@H]1O[C@@H](n2ccc(N)nc2=O)[C@H](O)[C@@H]1O [CDP-choline, cytidine 5′-diphosphocholine]
proton MR spectroscopic cytosolic choline resonance in the anterior cingulate cortex [1]: reduction
visuospatial learning (healthy subjects; p=0.0001): increases
verbal learning (healthy subjects; p=0.003): increases
verbal fluency (healthy subjects; p=0.07): increases
toxicity symptoms [2]: common cholinergic symptoms
antidepressant effects in the FST (rats [3]): did not have antidepressant effects
effect in the FST at high doses (rats [3]; high doses of citicoline): small pro-depressant effects
mean 17-item HDRS score with eight weeks of treatment (depressed subjects; CDP-choline 500 mg oral twice daily, fluoxetine open label 20 mg/day, p<0.0001): 10±7
mean 17-item HDRS score before treatment (depressed subjects; baseline, CDP-choline 12 subjects, fluoxetine 41 subjects): 21±3
complete responses (subjects/total) (depressed subjects; [8]): 6/12
complete responses, share of subjects (depressed subjects; [8]): 50%
brain phosphodiesters (phosphorus-31 MR) (brain phosphodiesters): significant increase
CDP-choline and/or its metabolites absorbed ([4]; orally administered): more than 99%
excreted in feces ([4]; orally administered): less than 1%
excretion route lung ([4]; share of dose): 12.9%
excretion route urine ([4]; share of dose): 2.4%
rest of the dose metabolized and retained in tissues ([4]; share of dose): 83.9%

weights of the rats [5]: did not affect
Compound: O=c1ccn([C@@H]2O[C@H](CO)[C@@H](O)[C@H]2O)c(=O)[nH]1 [URI, uridine]
latency to become immobile (male Sprague-Dawley rats; URI 71.7 mg/kg IP): not
latency to become immobile (male Sprague-Dawley rats; URI 130 mg/kg IP): not
immobility (male Sprague-Dawley rats; URI 239 mg/kg IP): reduced immobility
latency to become immobile (male Sprague-Dawley rats; URI 239 mg/kg IP): increased latencies
swimming behaviors (male Sprague-Dawley rats; URI 239 mg/kg IP): increased swimming behaviors
latency to become immobile, effect over doses (male Sprague-Dawley rats; URI alone 71.7, 130, 239 mg/kg IP): dose-dependent effects; also recorded: dose-dependently increased latencies to become immobile
occurrences of climbing (male Sprague-Dawley rats; URI alone 71.7-239 mg/kg IP): without affecting climbing
occurrences of immobility, effect over doses (male Sprague-Dawley rats; URI alone 71.7-239 mg/kg IP): significantly affected; also recorded: dose-dependently decreased immobility
occurrences of swimming, effect over doses (male Sprague-Dawley rats; URI alone 71.7-239 mg/kg IP): significantly affected; also recorded: increased swimming

Compound: Nc1ccn([C@@H]2O[C@H](CO)[C@@H](O)[C@H]2O)c(=O)n1 [cytidine]
conditioned rewarding effects (rats [6]): did not affect locomotor activity or establish conditioned rewarding effects
locomotor activity (rats [7]): did not affect locomotor activity
antidepressant effects in the FST (rats [3]): significant antidepressant effects
